{
  "source": "paper PMC6277767",
  "about": "“Broad and Region-Specific Impacts of the Synthetic Cannabinoid CP 55,940 in Adolescent and Adult Female Mouse Brains” (Frontiers in Molecular Neuroscience, 2018)",
  "key": {"CD1 female mice": {"tested_on": "CD1 female mice", "assay": "Visual observation of mice given CP", "format": "in vivo, mouse", "settings": "PND 35, PND 50 and adult mice; 3 mg/kg i.p.", "experimental": "The Bloomington Institutional Animal Care and Use Committee of Indiana University reviewed and approved the animal procedures. Female mice from the CD1 strain were utilized to match our study examining THC’s effects on the brain lipidome ([Leishman et al., 2018]). Mice were given a single i.p. injection of either 3 mg/kg CP or 1:1:18 cremophor:ethanol:saline vehicle (please refer to the section “3 mg/kg CP Is Relevant for Synthetic Cannabinoid Abuse and Has Stronger Effects on the Female Mouse Brain Lipidome During Adolescence” for a justification of dose and use of female mice). Three different age groups were given injections: PND 35 and PND 50 adolescents, and adult mice (PND 113). At least eight mice in each age group received CP and at least eight received vehicle. Matching the THC study time course ([Leishman et al., 2018]), mice were sacrificed via rapid decapitation 2 h after injection. Brains were immediately removed and flash-frozen in liquid nitrogen, and then stored at -80°C until dissections were performed. Brains were dissected on an ice-cold dissection plate into the following regions: STR, HIPP, CER, THAL, CTX, HYP, MID, and STEM. These abbreviations for these brain areas will be used exclusively when discussing the results generated by these specific dissections. […]"}, "CB1": {"tested_on": "CB1", "parameters": "method as in Felder et al., 1995", "settings": "ref Felder et al., 1995; read-out: IC50, inhibition of adenylate cyclase at CB1; cited from earlier work"}, "CB2": {"tested_on": "CB2", "parameters": "method as in Felder et al., 1995", "settings": "ref Felder et al., 1995; read-out: IC50, inhibition of adenylate cyclase at CB2; cited from earlier work"}, "mice": {"tested_on": "mice", "settings": "cited from earlier work; for catalepsy: single 0.3 mg/kg injection, ref Kow et al., 2014"}, "rats": {"tested_on": "rats", "parameters": "method as in McGregor et al., 1996", "settings": "acute injection of 0.1 mg/kg, ref McGregor et al., 1996; cited from earlier work"}, "[1]": {"parameters": "method as in earlier work", "settings": "ref Ferrari et al., 2000; Lopez et al., 2009; Gorzalka et al., 2010; cited from earlier work"}, "[2]": {"tested_on": "CD1 female mouse brain lipidome", "assay": "Brain-region lipid levels (HPLC/MS/MS lipidomics) 2 h after single i.p. 3 mg/kg CP 55,940 vs vehicle", "format": "in vivo", "experimental": "(§1) The Bloomington Institutional Animal Care and Use Committee of Indiana University reviewed and approved the animal procedures. Female mice from the CD1 strain were utilized to match our study examining THC’s effects on the brain lipidome ([Leishman et al., 2018]). Mice were given a single i.p. injection of either 3 mg/kg CP or 1:1:18 cremophor:ethanol:saline vehicle (please refer to the section “3 mg/kg CP Is Relevant for Synthetic Cannabinoid Abuse and Has Stronger Effects on the Female Mouse Brain Lipidome During Adolescence” for a justification of dose and use of female mice). Three different age groups were given injections: PND 35 and PND 50 adolescents, and adult mice (PND 113). At least eight mice in each age group received CP and at least eight received vehicle. Matching the THC study time course ([Leishman et al., 2018]), mice were sacrificed via rapid decapitation 2 h after injection. Brains were immediately removed and flash-frozen in liquid nitrogen, and then stored at -80°C until dissections were performed. Brains were dissected on an ice-cold dissection plate into the following regions: STR, HIPP, CER, THAL, CTX, HYP, MID, and STEM. These abbreviations for these brain areas will be used exclusively when discussing the results generated by these specific dissections. Each dissected area was immediately placed in liquid nitrogen and then stored at -80°C until used for lipid extraction.\n(§2) Tissue extracts were performed as previously described ([Bradshaw et al., 2006]; [Stuart et al., 2013]; [Raboune et al., 2014]; [Leishman et al., 2016a],[b], [2017], [2018]). First, samples were shock frozen in liquid nitrogen, weighed, and transferred to a centrifuge tube. The mass of the largest sample was multiplied by 50 to determine how many milliliters of HPLC-grade methanol (Fisher, Fair Lawn, NJ, United States) to add. Then, samples were spiked with 500 pmol deuterium-labeled NAGly (d8NAGly; Cayman Chemical, Ann Arbor, MI, United States). Samples were placed on ice in darkness for 2 h then individually homogenized and centrifuged at 19,000 × g for 20 min at 20°C. Supernatants were diluted with HPLC water (purified in house) to make a solution of 75% water, 25% supernatant. Lipids were partially purified on C18 solid phase extraction columns (Agilent, Palo Alto, CA, United States). A series of four elutions with 1.5 mL of 60%, 75%, 85%, and 100% methanol were collected ([Stuart et al., 2013]; [Leishman et al., 2016a],[b], [2018]).\nAs previously described ([Bradshaw et al., 2006]; [Tan et al., 2006]; [Smoum et al., 2010]; [Stuart et al., 2013]; [Tortoriello et al., 2013]; [Raboune et al., 2014]; [Leishman et al., 2016a],[b], [2017], [2018]), samples were analyzed using an Applied Biosystems API 3000 triple quadrupole mass spectrometer with electrospray ionization (Foster City, CA, United States). Using an Agilent XDB-C18 reversed phase analytical column and optimized mobile phase gradients, 20 μL from each elution were chromatographed. Two Shimadzu 10ADvp pumps (Columbia, MD, United States) provided the pressure for gradient elution. Mobile phase A: 20% methanol, 80% water (v/v) and 1 mM ammonium acetate (Sigma, St. Louis, MO, United States). Mobile phase B: 100% methanol, 1 mM ammonium acetate. Every method run began with 0% mobile phase B, reached 100% mobile phase B flowing at 0.2 mL/min, and gradually returned to 0% mobile phase B.\nThis screening library will be referred to as the lipidome when discussing data from this study. HPLC/MS/MS data were analyzed using Analyst software (Applied Biosystems) ([Bradshaw et al., 2006]; [Tan et al., 2006]; [Stuart et al., 2013]; [Tortoriello et al., 2013]; [Raboune et al., 2014]; [Leishman et al., 2016a],[b], [2017], [2018]). Chromatograms (Supplementary Figure 3) were generated by determining the retention time of analytes from the analytical column with a [M-1] or [M+1] parent peak and a fragmentation peak corresponding to the programmed values. […]"}, "[3]": {"tested_on": "CD1 female mouse brain lipidome", "assay": "Brain-region lipid levels (HPLC/MS/MS lipidomics) 2 h after single i.p. 3 mg/kg CP 55,940 vs vehicle", "format": "in vivo", "parameters": "unit: moles per gram", "experimental": "as §1\nas §2, with “Supernatants were diluted with HPLC water (purified in house) to make a solution of 75% water, 25% supernatant. Lipids were partially purified on C18 solid phase extraction columns (Agilent, Palo Alto, CA, United States). A series of four elutions with 1.5 mL of 60%, 75%, 85%, and 100% methanol were collected ([Stuart et al., 2013]; [Leishman et al., 2016a],[b], [2018]).” left out\nAs previously described ([Bradshaw et al., 2006]; [Tan et al., 2006]; [Smoum et al., 2010]; [Stuart et al., 2013]; [Tortoriello et al., 2013]; [Raboune et al., 2014]; [Leishman et al., 2016a],[b], [2017], [2018]), samples were analyzed using an Applied Biosystems API 3000 triple quadrupole mass spectrometer with electrospray ionization (Foster City, CA, United States). […]\nThis screening library will be referred to as the lipidome when discussing data from this study. HPLC/MS/MS data were analyzed using Analyst software (Applied Biosystems) ([Bradshaw et al., 2006]; [Tan et al., 2006]; [Stuart et al., 2013]; [Tortoriello et al., 2013]; [Raboune et al., 2014]; [Leishman et al., 2016a],[b], [2017], [2018]). […]"}},
  "note": "Where two headings read alike, the source gives them in different places.",
  "data": [
    {"smiles": "CCCCCCC(C)(C)c1ccc([C@@H]2C[C@H](O)CC[C@H]2CCCO)c(O)c1", "note": "[CP 55,940]", "values": [
      {"measurement": "locomotor activity (visual observation)", "setting": "CD1 female mice", "value": "profoundly reduced locomotor activity"},
      {"measurement": "mortality", "setting": "CD1 female mice", "value": "no mortality"},
      {"measurement": "IC50", "setting": "CB1", "value": "[…]"},
      {"measurement": "IC50", "setting": "CB2", "value": "[…]"},
      {"measurement": "catalepsy", "setting": "mice; C57 mice", "value": "produced catalepsy"},
      {"measurement": "catalepsy", "setting": "mice; CB1 KO mice", "value": "not"},
      {"measurement": "ED50 for catalepsy", "setting": "mice; ref Little et al., 1988, Compton et al., 1992", "value": 0.4, "unit": "mg/kg"},
      {"measurement": "duration of anorexic effects", "setting": "rats", "value": "[…]"},
      {"measurement": "doses attenuating social motivation", "setting": "[1]", "value": "over 0.4 mg/kg"},
      {"measurement": "PGF2α level, Mean", "setting": "[2]; adult cortex, 3mg/kg CP 55,940", "value": "2.77E-10"},
      {"measurement": "PGF2α level, Mean", "setting": "[2]; adult female mice, brainstem, 3mg/kg CP 55,940", "value": "1.69E-10"},
      {"measurement": "PGF2α level, Mean", "setting": "[2]; adult hypothalamus, 3 mg/kg CP 55,940", "value": "2.18E-10"},
      {"measurement": "PGF2α level, Mean", "setting": "[2]; adult midbrain, 3mg/kg CP 55,940", "value": "2.91E-10"},
      {"measurement": "PGF2α level, Mean", "setting": "[2]; brainstem, PND 50, 3 mg/kg CP 55,940", "value": "1.26E-10"},
      {"measurement": "PGF2α level, Mean", "setting": "[2]; cerebellum, WT adult female mice, 3mg/kg CP 55,940", "value": "2.22E-10"},
      {"measurement": "PGF2α level, Mean", "setting": "[2]; cerebellum, PND35 WT female mice, 3mg/kg CP 55,940", "value": "3.05E-10"},
      {"measurement": "PGF2α level, Mean", "setting": "[2]; cortex, PND 50 female mice, 3mg/kg CP 55,940", "value": "1.71E-10"},
      {"measurement": "PGF2α level, Mean", "setting": "[2]; cortex, PND 35 adolescent female mice, 3 mg/kg CP 55,940", "value": "3.11E-10"},
      {"measurement": "PGF2α level, Mean", "setting": "[2]; hippocampus, adult, 3 mg/kg CP 55,940", "value": "3.25E-10"},
      {"measurement": "PGF2α level, Mean", "setting": "[2]; hippocampus, PND 35 WT female mice, 3mg/kg CP 55,940", "value": "9.18E-10"},
      {"measurement": "PGF2α level, Mean", "setting": "[2]; hypothalamus, PND 50 female mice, 3mg/kg CP 55,940", "value": "1.35E-10"},
      {"measurement": "PGF2α level, Mean", "setting": "[2]; midbrain, PND 50 female mice, 3mg/kg CP 55,940", "value": "1.57E-10"},
      {"measurement": "PGF2α level, Mean", "setting": "[2]; striatum, adult, 3 mg/kg CP 55,940", "value": "2.43E-10"},
      {"measurement": "PGF2α level, Mean", "setting": "[2]; thalamus, WT adult female mice, 3mg/kg CP 55,940", "value": "2.22E-10"},
      {"measurement": "PGF2α level, Mean", "setting": "[2]; thalamus, PND 35 adolescent female mice, 3 mg/kg CP 55,940", "value": "5.11E-10"},
      {"measurement": "PGF2α level, Mean", "setting": "[3]; cerebellum, PND 50 female mice, 3 mg/kg CP 55,940", "value": "6.11E-11"},
      {"measurement": "PGF2α level, Mean", "setting": "[3]; hypothalamus, PND 35 adolescent female mice, 3 mg/kg", "value": "3.47E-10"},
      {"measurement": "PGF2α level, Mean", "setting": "[3]; midbrain, PND 35 WT adolescent female mice, 3 mg/kg", "value": "5.59E-10"},
      {"measurement": "PGF2α level, Mean", "setting": "[3]; thalamus, PND 50 female mice, 3 mg/kg CP 55,940", "value": "1.3E-10"}
    ]}
  ]
}
